Tests used:
THP-1 cells = experiment: Detection of apoptosis (annexin V/PI assay); type: cell-based; conditions: apoptosis seen at 1.5 µM and 24 and 72 h
Procedure: (§1) Detection of apoptosis and cell cycle analysis. Detection of apoptosis and cell cycle analysis were performed as described previously. Cells (1 × 10^5 cells/mL) were seeded into a six-well plate (Corning) and incubated overnight at 37 °C, 5% CO2 prior to incubation with different concentrations of CDDD11-8 or control (0.1% final DMSO concentration) for 6, 24, or 72 h. For washout experiments, cells were incubated with compounds for 6 h, then washed three times with 1 × PBS interspersed with centrifugation at 300× g for 5 min to remove compound. After incubation at 37 °C under 5% CO2, cells were centrifuged at 300× g for 5 min to form a pellet, washed with PBS, and incubated with Annexin V/PI (Becton Dickenson, Franklin Lakes, NJ, USA) for 15 min in the dark. For cell cycle analysis, cells were fixed with 70% ethanol (v/v, 4 °C) and incubated in the dark with cell cycle staining solution (50 µg/mL PI, 0.1 mg/mL RNase A, 0.05% Triton X-100) for 1.5 h. Samples were analyzed using a CytoFlex flow cytometer (Beckman Coulter, Brea, CA, USA). Data were analyzed with CytExpert software version 2.1 (Beckman Coulter, Brea, CA, USA).

MV4-11 cells = experiment: Detection of apoptosis (annexin V/PI assay); type: cell-based; conditions: MV4-11, 1 µM
Procedure: as §1

MOLM-13 cells = experiment: Detection of apoptosis (annexin V/PI assay); type: cell-based; conditions: MOLM-13, 1 µM
Procedure: as §1

THP-1 = experiment: Cell viability assay (resazurin); type: cell-based; conditions: THP-1, 72 h, mean ± SD
Procedure: (§2) Cell culture. MV4-11, HL60, K-562, THP-1, MO91, and U937 cell lines were from the ATCC (Rockville, MD, USA); MOLM-13, NB4, and PL21 cell lines were from the DSMZ (Braunschweig, Germany); and Jurkat cells were from the ECACC (Salisbury, UK). All cells were cultured in RPMI medium (Sigma-Aldrich) supplemented with 10% to 20% of heat-inactivated fetal bovine serum (Sigma-Aldrich), and cells were maintained at 37 °C, 5% CO2, and 95% humidity. All the cell lines were tested to be mycoplasma-negative using MycoAlert^TM mycoplasma detection kit (Lonza, Derrimut, VIC, Australia).
(§3) Cell viability assay. The viability of leukemia cell lines after incubation with CDDD11-8 was determined by their ability to reduce resazurin, as described previously. Cells (5 × 10^3) were seeded into 96-well plates (Corning Inc., Corning, NY, USA) and incubated overnight at 37 °C. Subsequently, they were incubated with CDDD11-8 (concentrations ranging from 0.003 µM to 31.6 µM; using three-fold serial dilutions) or DMSO (final concentration of 0.1%) for 72 h. Afterwards, cells were incubated with 20 µL of resazurin (0.1 mg/mL in PBS) for 4 h at 37 °C under 5% CO2, and the fluorescence intensities were measured using an EnVision® multilabel plate reader at 570 nm (excitation)/585 nm (emission). The concentration required to inhibit cellular growth by 50% (GI50) was determined using the same non-linear regression model as shown above, with Ar (%) = % cell viability, and IC50 replaced with GI50.

K-562 = experiment: Cell viability assay (resazurin); type: cell-based; conditions: Homo sapiens, K562; K-562, 72 h, mean ± SD
Procedure: as §2, §3

MRCKb/CDC42BPB = target: T1, MRCKb/CDC42BPB (Homo sapiens, UniProt Q9Y5S2); experiment: Kinase Hotspot radiolabel assay; type: biochemical; conditions: read-out: % Residual Activity
T1 construct: purchased Reaction Biology Corporation (Kinase HotSpot)
Procedure: (§4) Kinase assay. The ADP Glo^TM kinase assay (Promega, Madison, WI, USA) was used to assess the inhibition by CDDD11-8 of CDKs 1, 2, 4, 6, 7, and 9, as well as the mutant isoforms of FLT3. The assays were performed in accord with the manufacturer’s protocol (Promega) as described previously. Briefly, serial three-fold dilutions of CDDD11-8 were prepared in 100% DMSO from a 2 mM stock solution, followed by 1:40 dilution into Milli-Q water. Subsequently, 1 µL of each sample was incubated with 4 µL of kinase mixture containing a particular CDK enzyme and its substrate, standard kinase buffer [3 mM MgCl2, 50 mM HEPES-NaOH pH 7.5, 3 mM MnCl2, 3 µM Na-orthovanadate, 1 mM dithiothreitol (DTT)], kinase dilution buffer (containing 0.25 mg/mL PEG20,000, 50 mM HEPES-NaOH pH 7.5, 1 mM DTT), and ATP at 37 °C for 30 to 40 min. The final reaction mixture contained 0.5% DMSO in all samples, and the applied kinase concentrations were 1, 1, 10, 40, 20, and 50 nM for CDK1, 2, 4, 6, 7, and 9, respectively. The reaction was stopped by adding ADP-Glo reagent and the mixture was incubated further in the dark at room temperature for 40 min. As a final step, kinase detection reagent was added to each mixture and incubated at room temperature for 30 to 60 min. Luminescence was read using an EnVision® multilabel plate reader (PerkinElmer, Beaconsfield, UK), and half-maximum inhibitory concentrations (IC50) were calculated using a non-linear regression model with a variable slope, plotting log (inhibitor concentration) vs. response using the following formula: Ar%=Bottom+Top−Bottom/1+Inhibitor Concentration/IC50^HillSlope where the relative activity Ar (%) is the signal relative to the controls, IC50 is the half maximum concentration, Hillslope is the steepness of the dose-response curve, Top and Bottom are plateaus reflecting the maximum and minimum in responses on the Y-axis (GraphPad Prism version 7, San Diego, CA, USA). Ki values were calculated from the IC50 using the Cheng−Prusoff equation [32]. Extensive specificity assessment was carried out by Reaction Biology Corporation (Malvern, PA, USA) with 369 kinases using 1 µM CDDD11-8 concentration in a Kinase Hotspot radiolabel assay (for experimental details, please see (Reaction Biology https://www.reactionbiology.com/). Subsequently, Ki values were determined for kinases with greater than 90% inhibition.

IGF1R = target: T2, IGF1R (Homo sapiens, UniProt P08069); experiment: Kinase Hotspot radiolabel assay; type: biochemical; conditions: read-out: % Residual Activity
T2 construct: purchased Reaction Biology Corporation (Kinase HotSpot)
T2 sequence (P08069 31-1367): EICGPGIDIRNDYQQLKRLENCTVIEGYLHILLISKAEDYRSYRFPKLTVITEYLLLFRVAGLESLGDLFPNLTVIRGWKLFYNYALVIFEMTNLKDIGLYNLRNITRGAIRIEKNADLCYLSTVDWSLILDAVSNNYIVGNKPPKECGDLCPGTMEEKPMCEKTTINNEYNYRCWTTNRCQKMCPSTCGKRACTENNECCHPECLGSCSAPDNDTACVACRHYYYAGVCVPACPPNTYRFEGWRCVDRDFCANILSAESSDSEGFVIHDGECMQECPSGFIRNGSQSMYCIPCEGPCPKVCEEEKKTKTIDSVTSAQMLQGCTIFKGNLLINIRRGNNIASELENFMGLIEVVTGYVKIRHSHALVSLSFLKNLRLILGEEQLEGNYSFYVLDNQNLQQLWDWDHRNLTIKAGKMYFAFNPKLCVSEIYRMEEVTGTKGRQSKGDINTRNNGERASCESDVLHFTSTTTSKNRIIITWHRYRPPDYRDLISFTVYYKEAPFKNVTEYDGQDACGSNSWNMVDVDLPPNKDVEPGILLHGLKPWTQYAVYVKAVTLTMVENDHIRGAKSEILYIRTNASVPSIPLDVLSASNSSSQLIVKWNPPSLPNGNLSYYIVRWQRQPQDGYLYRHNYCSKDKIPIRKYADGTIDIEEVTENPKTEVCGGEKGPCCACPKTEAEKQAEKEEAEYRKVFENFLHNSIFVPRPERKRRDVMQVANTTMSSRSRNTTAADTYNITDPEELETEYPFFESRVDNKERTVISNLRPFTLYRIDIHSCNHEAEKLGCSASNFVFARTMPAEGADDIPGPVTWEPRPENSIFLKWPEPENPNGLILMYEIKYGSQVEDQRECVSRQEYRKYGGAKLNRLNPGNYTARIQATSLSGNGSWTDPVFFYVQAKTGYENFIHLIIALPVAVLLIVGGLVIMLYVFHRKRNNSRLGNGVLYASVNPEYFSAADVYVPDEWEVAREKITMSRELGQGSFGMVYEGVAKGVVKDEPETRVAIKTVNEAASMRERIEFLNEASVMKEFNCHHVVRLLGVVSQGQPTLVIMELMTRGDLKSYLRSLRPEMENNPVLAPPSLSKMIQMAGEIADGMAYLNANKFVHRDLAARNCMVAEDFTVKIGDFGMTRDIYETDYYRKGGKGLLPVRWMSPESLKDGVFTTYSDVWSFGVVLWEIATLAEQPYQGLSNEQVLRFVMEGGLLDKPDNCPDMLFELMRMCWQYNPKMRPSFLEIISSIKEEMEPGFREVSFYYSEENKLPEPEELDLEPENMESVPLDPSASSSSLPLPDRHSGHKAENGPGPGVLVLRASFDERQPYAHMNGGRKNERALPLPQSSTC
Procedure: as §4

CK1a1 = target: T3, CK1a1 (Homo sapiens, UniProt P48729); experiment: Kinase Hotspot radiolabel assay; type: biochemical; conditions: read-out: % Residual Activity
T3 construct: purchased Reaction Biology Corporation (Kinase HotSpot)
T3 sequence (P48729 whole entry): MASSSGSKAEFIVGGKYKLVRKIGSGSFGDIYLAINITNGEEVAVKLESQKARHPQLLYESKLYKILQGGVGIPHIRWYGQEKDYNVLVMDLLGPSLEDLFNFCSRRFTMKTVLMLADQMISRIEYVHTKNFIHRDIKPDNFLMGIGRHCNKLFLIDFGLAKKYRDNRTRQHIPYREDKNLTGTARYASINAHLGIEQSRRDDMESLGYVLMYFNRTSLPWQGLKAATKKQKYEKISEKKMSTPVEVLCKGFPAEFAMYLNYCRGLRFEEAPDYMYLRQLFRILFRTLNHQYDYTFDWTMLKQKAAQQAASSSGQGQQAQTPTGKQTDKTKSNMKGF
Procedure: as §4

TAK1 = target: T4, TAK1 (Homo sapiens, UniProt O43318); experiment: Kinase Hotspot radiolabel assay; type: biochemical; conditions: read-out: % Residual Activity
T4 construct: purchased Reaction Biology Corporation (Kinase HotSpot)
T4 sequence (O43318 1-303 limits assumed): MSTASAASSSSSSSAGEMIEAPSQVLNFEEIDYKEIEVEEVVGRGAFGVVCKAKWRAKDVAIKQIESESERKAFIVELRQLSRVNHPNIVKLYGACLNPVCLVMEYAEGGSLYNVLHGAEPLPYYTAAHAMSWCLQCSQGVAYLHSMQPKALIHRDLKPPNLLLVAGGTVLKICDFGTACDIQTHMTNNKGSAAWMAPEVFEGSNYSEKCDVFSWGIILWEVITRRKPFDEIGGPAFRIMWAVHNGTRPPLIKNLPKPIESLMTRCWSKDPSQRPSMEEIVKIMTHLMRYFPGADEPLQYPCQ
Procedure: as §4

HPK1/MAP4K1 = target: T5, HPK1/MAP4K1 (Homo sapiens, UniProt Q92918); experiment: Kinase Hotspot radiolabel assay; type: biochemical; conditions: read-out: % Residual Activity
T5 construct: purchased Reaction Biology Corporation (Kinase HotSpot)
T5 sequence (Q92918 whole entry): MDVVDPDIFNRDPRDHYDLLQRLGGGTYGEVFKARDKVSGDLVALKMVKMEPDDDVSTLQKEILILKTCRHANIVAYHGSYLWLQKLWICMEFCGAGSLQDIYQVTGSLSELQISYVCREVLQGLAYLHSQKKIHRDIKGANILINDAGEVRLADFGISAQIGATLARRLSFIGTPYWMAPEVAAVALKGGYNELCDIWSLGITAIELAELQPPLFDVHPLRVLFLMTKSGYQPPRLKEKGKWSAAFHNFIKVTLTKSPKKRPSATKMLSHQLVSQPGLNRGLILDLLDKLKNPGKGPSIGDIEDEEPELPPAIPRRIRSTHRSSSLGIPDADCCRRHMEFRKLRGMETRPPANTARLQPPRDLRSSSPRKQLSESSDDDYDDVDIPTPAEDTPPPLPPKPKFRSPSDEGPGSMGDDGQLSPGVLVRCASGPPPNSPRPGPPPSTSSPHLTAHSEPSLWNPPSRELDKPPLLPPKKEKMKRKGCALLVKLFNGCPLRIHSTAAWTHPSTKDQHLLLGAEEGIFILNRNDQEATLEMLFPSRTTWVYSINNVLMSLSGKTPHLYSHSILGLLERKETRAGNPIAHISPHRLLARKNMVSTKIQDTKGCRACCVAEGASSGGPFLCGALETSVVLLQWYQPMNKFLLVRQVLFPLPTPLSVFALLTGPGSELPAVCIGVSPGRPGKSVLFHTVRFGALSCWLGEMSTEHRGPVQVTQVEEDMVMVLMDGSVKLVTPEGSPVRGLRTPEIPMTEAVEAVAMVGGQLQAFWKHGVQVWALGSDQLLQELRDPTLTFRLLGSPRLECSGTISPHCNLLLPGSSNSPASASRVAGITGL
Procedure: as §4

IRR/INSRR = target: T6, IRR/INSRR (Homo sapiens, UniProt P14616); experiment: Kinase Hotspot radiolabel assay; type: biochemical; conditions: read-out: % Residual Activity
T6 construct: purchased Reaction Biology Corporation (Kinase HotSpot)
T6 sequence (P14616 27-1297): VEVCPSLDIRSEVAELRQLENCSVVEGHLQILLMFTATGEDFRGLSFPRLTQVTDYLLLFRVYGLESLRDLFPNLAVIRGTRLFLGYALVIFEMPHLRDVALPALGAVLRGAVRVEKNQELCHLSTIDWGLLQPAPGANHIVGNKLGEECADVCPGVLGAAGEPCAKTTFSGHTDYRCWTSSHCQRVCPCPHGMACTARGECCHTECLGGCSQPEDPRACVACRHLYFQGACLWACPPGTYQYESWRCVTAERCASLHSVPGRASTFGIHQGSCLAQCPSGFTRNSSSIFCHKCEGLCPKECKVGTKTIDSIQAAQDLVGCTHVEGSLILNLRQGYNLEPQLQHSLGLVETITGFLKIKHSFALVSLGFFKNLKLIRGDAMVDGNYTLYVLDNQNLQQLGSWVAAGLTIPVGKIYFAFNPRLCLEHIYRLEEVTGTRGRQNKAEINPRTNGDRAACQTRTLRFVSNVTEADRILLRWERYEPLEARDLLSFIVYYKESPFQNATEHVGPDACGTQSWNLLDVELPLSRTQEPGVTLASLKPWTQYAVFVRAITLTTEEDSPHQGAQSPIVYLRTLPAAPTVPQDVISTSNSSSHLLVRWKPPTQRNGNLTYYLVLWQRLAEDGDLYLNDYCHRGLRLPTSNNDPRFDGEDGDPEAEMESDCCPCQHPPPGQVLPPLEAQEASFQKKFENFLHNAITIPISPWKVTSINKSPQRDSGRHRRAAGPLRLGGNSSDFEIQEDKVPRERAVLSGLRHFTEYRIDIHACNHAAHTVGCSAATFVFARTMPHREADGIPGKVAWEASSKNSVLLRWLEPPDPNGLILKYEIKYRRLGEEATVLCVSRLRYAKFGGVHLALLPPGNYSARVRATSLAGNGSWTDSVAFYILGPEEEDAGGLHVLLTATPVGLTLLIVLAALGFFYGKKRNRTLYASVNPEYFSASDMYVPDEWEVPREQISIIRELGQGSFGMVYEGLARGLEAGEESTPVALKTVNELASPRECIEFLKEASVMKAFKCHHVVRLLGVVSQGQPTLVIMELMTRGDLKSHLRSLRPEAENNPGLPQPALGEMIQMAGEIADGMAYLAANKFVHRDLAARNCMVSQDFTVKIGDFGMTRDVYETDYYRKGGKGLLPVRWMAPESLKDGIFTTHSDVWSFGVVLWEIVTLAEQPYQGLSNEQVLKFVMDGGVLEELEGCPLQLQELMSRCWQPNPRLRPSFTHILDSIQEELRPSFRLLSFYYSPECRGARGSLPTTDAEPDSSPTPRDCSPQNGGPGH
Procedure: as §4

MKK6 = target: T7, MKK6 (Homo sapiens, UniProt P52564); experiment: Kinase Hotspot radiolabel assay; type: biochemical; conditions: read-out: % Residual Activity
T7 construct: purchased Reaction Biology Corporation (Kinase HotSpot)
T7 sequence (P52564 whole entry): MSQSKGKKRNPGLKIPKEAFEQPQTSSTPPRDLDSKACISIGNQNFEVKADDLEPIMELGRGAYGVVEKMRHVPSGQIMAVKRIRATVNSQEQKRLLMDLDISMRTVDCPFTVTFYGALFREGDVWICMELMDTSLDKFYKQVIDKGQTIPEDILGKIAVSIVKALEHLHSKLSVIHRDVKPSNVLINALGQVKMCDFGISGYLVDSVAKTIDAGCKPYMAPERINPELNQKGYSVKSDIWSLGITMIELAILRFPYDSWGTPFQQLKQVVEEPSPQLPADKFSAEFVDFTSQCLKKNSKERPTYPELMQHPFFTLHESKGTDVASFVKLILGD
Procedure: as §4

Cc1cnc(N[C@H]2CC[C@H](N)CC2)nc1-c1cnc2ccc(-c3ccccc3)cn12 [CDDD11-8]
induction of apoptosis (THP-1 cells): less impact
apoptotic (Annexin V-positive) cells (MV4-11 cells; 6 h): 51%
apoptotic cells after washout (MV4-11 cells; 6 h then 24 h without compound): 28%
apoptotic (Annexin V-positive) cells (MOLM-13 cells; 6 h): 86%
apoptotic cells after washout (MOLM-13 cells; 6 h then 24 h without compound): 61%
GI50 (THP-1; Homo sapiens): 460 nM
GI50 (THP-1): 459 ± 40 nM
GI50 (K-562): 1500 ± 47 nM
remaining activity at 1 µM (MRCKb/CDC42BPB): 79.3%
remaining activity at 1 µM (IGF1R): 79%
remaining activity at 1 µM (CK1a1): 102%
remaining activity at 1 µM (TAK1): 77.8%
remaining activity at 1 µM (HPK1/MAP4K1): 35.4%
remaining activity at 1 µM (IRR/INSRR): 101%
remaining activity at 1 µM (MKK6): 95.7%

Source: paper PMC8909834, “An Orally Bioavailable and Highly Efficacious Inhibitor of CDK9/FLT3 for the Treatment of Acute Myeloid Leukemia” (Cancers, 2022)
